One substance from US11628198B2, “Methods for prevention and treatment of acute renal injury” (Cornell University, priority 2008, dated 2023) can be followed below.

Values joined by “and” are separate entries in the source; they are usually repeats but may differ in a detail not shown here. Equal entries are not always repeated.

What all share (format): in vivo, rat
One test concerns ARI caused by cisplatin. The test can be described thus: Cisplatin-induced ARI model. How it is done: Sprague-Dawley rats (350-400 g) were given a single dose of cisplatin (7 mg/kg) intraperitoneally on Day 1. One group of rats (n=8) received one dose of SS-31 (3 mg/kg) subcutaneously just prior to cisplatin administration, and repeated once daily for 3 more days. A second group of rats (n=8) […] received an equal volume of saline on the day of cisplatin administration and for 3 more days after.
Experimental Protocol: Rats had free access to tap water and standard rat chow prior to cisplatin administration. Control blood samples were obtained from the tail vein before cisplatin administration. Saline or SS-31 (dissolved in saline) was administered to the rats subcutaneously prior to cisplatin injection. Cisplatin (dissolved in saline) was administered at a dose of 7 mg/kg intraperitoneally. All rats then received either saline or SS-31 (3 mg/kg) daily for 3 days. Rat were placed in metabolic cages for the last 24 hours for urine collection. At the end of this period, a blood sample was withdrawn from the tail vein. After this, the animals were anesthetized, kidneys were removed, and the animals euthanized.
Renal function: Renal function was assessed by blood urea nitrogen (BUN), serum creatinine, urine creatinine, and urine protein (Beckman ALX Chemical Analyzer). GFR was estimated from creatinine clearance which was determined from urinary creatinine, urine flow rate, and serum creatinine.
Renal Histology: Kidneys were fixed in 10% neutral-buffered formalin and embedded in paraffin wax. Three micron sections were stained with periodic acid-Schiff (PAS) and analyzed by light microscopy.

For test [1], the system named is ATP content in renal tissue. The test can be described thus: I/R model: ATP content assay of kidney tissue. How it is done:
(§1) Sprague Dawley rats (250˜300 g) were assigned to four groups: (1) sham surgery group without I/R; (2) I/R+saline vehicle treatment; (3) I/R+SS-20 treatment; (4) I/R+SS-31 treatment. Each experimental group consisted of 8 rats. SS-20 and SS-31 (3 mg/kg, dissolved in saline) were administered to rats 30 min before ischemia and immediately before onset of reperfusion. The control rats were given saline alone on the same schedule.
(§2) Rats were anesthetized with a mixture of ketamine (90 mg/kg, i.p.) and xylazine (4 mg/kg, i.p.). The left renal vascular pedicle was occluded temporarily using a micro-clamp for 30 or 45 min. At the end of the ischemic period, reperfusion was established by removing of the clamp. At that time, the contralateral right kidney was removed. After 24 h reperfusion, animals were sacrificed and blood samples were obtained by cardiac puncture. Renal function was determined by blood urea nitrogen (BUN) and serum creatinine (BioAssay Systems DIUR-500 and DICT-500).
ATP Content Assay: The kidney tissue was immediately put into 10 ml 5% trichloroacetic acid with 10 mM DTT, 2 mM EDTA and cut into small pieces. The tissue was homogenized on ice, incubated for another 10 min, centrifuged for 10 min at 2000×g, and neutralized with 10N KOH to pH 7.6. After centrifugation for 10 min at 2000×g, aliquots of the resulting supernatant were stored at −80° C. ATP was measured by bioluminescence (ATP bioluminescent kit, Sigma, MO, USA).

For test [2], the system named is ARI caused by ischemia-reperfusion (I/R). Description: I/R model: TUNEL assay for apoptosis. Conditions: 30 min ischemia and 24 h reperfusion; 3 mg/kg. How it is done: as §1, §2
TUNEL Assay for Apoptosis: Renal tissue sections were deparaffinized and rehydrated by xylenes, graded alcohol series and deionized H2O, and then incubated in 20 μg/ml proteinase K for 20 min at RT. In situ cell death detection POD kit (Roche, IN, USA) was used according to the manufacturer's instructions. […]

In test [3] the test system is CCl4 induced chronic nephrotoxicity. Description: CCl4 chronic kidney injury model: renal histology. Conditions: 10 mg/kg s.c. 5 days a week for 7 wks. From the text:
Study design and experimental protocol: In this model, SD rats with body weight of 250 g were fed with 0.35 g/L phenobarbital solution (Luminal water) for two weeks, then divided into three groups and treated as follows.
At the end of fifth week, four rats from each group were sacrificed for liver histopathological sectioning and fibrosis examination. In the end of 7th week, all remaining rats in each group were sacrificed, and kidney and liver tissues were harvest for histopathological sectioning and examination.
Renal Histology: Kidneys were fixed in 10% neutral-buffered formalin and embedded in paraffin wax. Three micron sections were stained with hematoxylin-eosin (H&E) and analyzed by light microscopy by a certified pathologist.

Test [4] deals with contrast induced nephropathy in diabetic animal model. The test can be described thus: CIN in diabetic (HFD/STZ) rats with iohexol, Experiment 3. Particulars: individual rats of Group C. How it is done: In this experiment, 20 SD rats were fed with high fat diet for 6 weeks, followed by the injection with low dose streptozotocin (35 mg/kg). After 15 more weeks, the rats were subjected to contrast induced nephropathy study. In addition, we included a normal control group was included in which 9 rats from the same batch on regular chow diet were subjected to the same protocol.
[…] The creatinine clearance was calculated based on the Scr, Ucr and urinary volume. Samples were analyzed by students t-test and differences were considered significant at p<0.05.

Test [5] deals with CIN in glycerol-induced rhabdomyolysis animal model. Description: CIN in glycerol-induced rhabdomyolysis model, Experiment 1. How it is done:
In this model, SD rats with body weight of 300-400 g were dehydrated for 24 h followed by i.m. injection of 25% glycerol solution (v/v) at the dose of 10 ml/kg. Twenty-four hours (24 h) later, the rats were grouped and subjected to a contrast induced nephropathy study protocol as detailed in FIG. 20. The effects of SS-31 on ARI can be examined by comparing the renal functions in animals from group C with those from group B. Samples were analyzed by students t-test and differences were considered significant at p<0.05.
Renal function: Renal function was assessed by determining serum and urinary creatinine using Jiancheng Cr kit (Nanjing, P.R.C) at baseline, 24 h after dehydration and 48 h post the contrast dye administration. The creatinine clearance was calculated based on the Scr, Ucr and urinary volume. Urinary microalbumin concentration was determined by a competition ELISA assay.

Setting [6] is: 3 days after cisplatin, 3 mg/kg s.c. daily.

As to D-Arg-2′6′Dmt-Lys-Phe-NH2 [SS-31], the “rats with no change in serum creatinine (<0.4 mg/dl)” value in the test on ARI caused by cisplatin (3 days after cisplatin) is given as 5 out of 8. In the test on ARI caused by cisplatin (setting [6]), this substance showed a BUN of 29.3 ± 25 mg/dL, a Kidney weight of 1.6 ± 0.2 g, a body weight of 384 ± 28 g and a serum creatinine of 0.8 ± 0.73 mg/dL. In the test with ARI caused by cisplatin (before cisplatin treatment), this substance registered a BUN of 15.5 ± 1.7 mg/dL, a body weight of 376.9 ± 5.2 g and a serum creatinine of 0.4 ± 0.09 mg/dL. For the same substance, the “ATP content in renal tissue” value in test [1] (1 h reperfusion following 45 min ischemia, vs vehicle) is given as “significantly higher”. For the same substance, in test [1] (end of 15 min ischemia), the “ATP content in renal tissue” value is recorded as “not altered”. Moreover, the “TUNEL-positive cells in the medulla (tubular cell apoptosis)” value in test [2] is on record as “significantly prevented TUNEL-positive cells”. Besides, in test [3], the “renal histology (H&E)” value is listed as “no observable histopathological change”. The “Scr T22h” value in test [4] (T22h post dye) was 25 μM (2×) and 26 μM and 24 μM and 27 μM and 28 μM and 30 μM and 35 μM and 19 μM. The “Scr % change T22” value in test [4] (T22h vs Tb) was 0% and 4% and −11% and 9% and −7% and 17% and 20% and 40% and −34%. Besides, the “Scr Tb” value in test [4] (baseline) is 25 μM (4×) and 27 μM and 23 μM and 29 μM (2×) and 24 μM. In addition, the urinary microalbumin level in test [5] (T0, after 24 h dehydration, no peptide treatment at this time point) worked out at 757.7±462.9 μg/24 h. In addition, the total albuminuria result in test [5] (T2, compared to the vehicle treated group) is listed as “decreased significantly”. Also, the “PAS staining of kidney” value in test [5] (glycerin, dye) was “intact brush borders, normal glomeruli and minimum protein cast in the tubular cells”.
